Reference: patent publication US6709849B2, “Dietary supplements for regulating male hormone” (priority 2002, dated 2004)

Legend:
[1] = system: castrated male Wistar rats; test: Growth of prostate, seminal vesicle and glandulae preputiales in castrated Wistar rats (wet weight); format: in vivo, rat; settings: daily for 14 days, sacrificed 24 hours after last administration, yeast 3 ml daily intragastric, testosterone propionate 25 mg/kg daily i.m.
Experimental: (§1) The activated yeast compositions used in the following examples were prepared as described above, using Saccharomyces cerevisiae Hansen AS2.504, cultured in the presence of an alternating electric field having the electric field frequency and field strength exemplified in the parentheses following the recommended ranges listed in Section IV, supra. Control (i.e., untreated) yeast compositions were those prepared in the same manner as described in Section VI, supra, except that the yeast cells were cultured in the absence of EMFs. Unless otherwise indicated, the yeast compositions and the corresponding controls were administered to the animals by intragastric feeding.
To test the ability of the EMF-treated AS2.504 cells to regulate male hormone, twenty-four healthy male Wistar rats (about 50 g body weight, 20 days old) were selected. Under ether anesthesia, both testes of each rat were removed under sterile conditions. The castrated rats were then randomly divided into four equal groups. The activated yeast composition was administered to Group A rats at a dose of 3 ml daily continuously for 14 consecutive days. […]
Each rat was sacrificed 24 hours after the last administration of the composition of interest. […] The wet weight of the prostate and seminal vesicle was recorded (Table 2). […] The wet weight of the removed glandulae preputiales was also recorded (Table 2).

[2] = system: castrated male NIH-grade mice; test: Growth of seminal vesicle and glandulae preputiales in castrated mice (weight); format: in vivo, mouse; settings: 7 days, yeast 1.5 ml/dose twice daily intragastric, testosterone propionate 20 mg/kg i.m. every other day
Experimental: as §1
Forty male NIH-grade castrated mice (about 25-30 g each) were randomly divided into four equal groups. Three days after castration, the activated yeast composition was administered to each of the Group A mice twice daily at 1.5 ml/dose for seven consecutive days. The control yeast composition was administered to each of the Group B mice at the same daily dosage for seven consecutive days. Testosterone propionate was injected intramuscularly to each of the Group C mice in the buttocks at 20 mg/kg every other day, i.e., on days 1, 3, 5, and 7, for a total of 7 days. Saline was orally administered to each of the Group D […] twice daily at 1.5 ml/dose for seven consecutive days. […]

SMILES: CCC(=O)O[C@H]1CC[C@H]2[C@@H]3CCC4=CC(=O)CC[C@]4(C)[C@H]3CC[C@]12C [testosterone propionate, Testosterone propionate]
- Glandulae Preputiales (wet weight) [1]: 98.6 ± 15.8
- Prostate and Seminal Vesicle (wet weight) [1]: 91.5 ± 12.8
- Glandulae Preputiales (mg/100 g body weight) [2]: 323.7 ± 50.6 mg/100 g body weight
- Seminal Vesicle (mg/100 g body weight) [2]: 268.2 ± 56.2 mg/100 g body weight
